Measured values from patent US6548530B1, “CBI analogs of CC-1065 and the duocarmycins” (The Scripps Research Institute, priority 1995, dated 2003).
Where two headings read alike, the source gives them in different places.

Assays:
L1210 [1] = assay: in vitro cytotoxic activity (L1210)
[2] = in vivo; cited from earlier work
[3] = test system: double-stranded DNA (clone w794); assay: DNA alkylation of 5′ end-labeled duplex DNA (thermally-induced strand cleavage, PAGE, autoradiography); format: biochemical; conditions: for DNA alkylation efficiency, fold less efficient than (+)-CBI-CDPI1 (26): natural enantiomers
Experimental: FIG. 21 illustrates the thermally-induced strand cleavage of double-stranded DNA (144 bp, nucleotide no. 138-5238, clone w794) after 24 h incubation of agent-DNA at 4° C. followed by removal of unbound agent and 30 inutes incubation at 100° C.; denaturing 8% polyacrylamide gel and autoradiography. Lanes 1-4, Sanger G,C,A, and T sequencing reactions; lane 5, control labeled w794 DNA; lanes 6-8, (+)-CPI-indole2 ((+)-4, 1×10^−4-1×10^−6 M); lanes 9-11, (+)-CBI-indole2 ((+)-27, 1×10^−5-1×10^−7 M).
FIG. 22 illustrates the thermally-induced strand clealvage of 5′ end-labeled duplex DNA (clone w794, 144 bp, nucleotide no 138-5238). Incubation of agent-DNA at 25° C. (24 h) followed by removal of unbound agent and 30 min thermolysis at 100° C., denaturing 8% PAGE, and autoradiography. Lanes 1-2, ent-(−)-duocarmycin SA ((−)-2, 1×10^−6 and 1×10^−7 M); lanes 3-5, (+)-duocarmycin SA, ((+)-2, 1×10^−6-1×10^−8 M); lanes 6-9, G, C, A and T sequencing reactions; lane 10, control labeled w794 DNA; lanes 11-13, (+)-CBI-TMI ((+)-29, 1×10^−6-1×10^−8 M); lanes 14-15, ent-(−)-CBI-TMI ((−)-29, 1×10^−5 and 1×10^−6 M).
FIGS. 23A-23B represent the following: Top: Plot of % integrated optical density (% IOD) versus time established through autoradiography of 5′ ^32P end-labeled DNA and used to monitor the relative rate of w794 alkylation at the 5′-AATTA high affinity site for (+)-CBI-indole2 (27) and (+)-CPI-indole2 (4); 37° C., 0-5 d, 1×10^−5 M agent. Bottom: Plot of % integrated optical density (% IOD) versus time established through autoradiography of 5′ ^32P end-labeled DNA and used to monitor the relative rate of w794 alkylation at the 5′-AATTA high affinity site for (+)-duocarmycin SA (2) and (+)-CBI-TMI (29); 4° C., 0-24 h, 1×10^−6 M agent.
DNA Alkylation Studies. General procedures, the preparation of singly ^32P 5′ end-labeled double-stranded DNA, the agent binding studies, gel electrophoresis, and autoradiography were conducted according to procedures described in full detail elsewhere. (Boger et. al Tetrahedron 1991, 47, 2661). Eppendorf tubes containing the 5′ end-labeled DNA (9 μL, w794 and w836) in TE buffer (10 mM Tris, 1 mM EDTA, pH 7.5) were treated with the agent DIMETHYLSULFOXIDE (1 μL at the specified concentration). The solution was mixed by vortexing and brief centrifugation and subsequently incubated at 25° C. for 3 days. The covalently modified DNA was separated from unbound agent by Ethanol precipitation and resuspended in TE buffer (10 μL). The solution of DNA in an Eppendorf tube sealed with parafilm was heated at 100° C. for 30 min to induce cleavage at the alkylation sites, allowed to cool to 25° C. and centrifuged. Formamide dye (0.33% xylene cyanol FF, 0.03% bromophenol blue, 8.7% Na2EDTA 250 mM) was added (5 μL) to the supernatant. Prior to electrophoresis, the sample was denatured by warming at 100° C. for 5 min, placed in an ice bath, and centrifuged, before the supernatant (3 μL) was loaded directly onto the gel. Sanger dideoxynucleotide sequencing reactions were run as standards adjacent to the reaction samples. Polyacrylamide gel electrophoresis (PAGE) was run on an 8% sequencing gel under denaturing conditions (8 M urea) in TBE buffer (100 mM Tris, 100 mM boric acid, 0.2 mM Na2EDTA) followed by autoradiography.
DNA Alkylation Studies of 2-5: Selectivity and Efficiency. Eppendorf tubes containing singly ^32P 5′-end-labeled double-stranded DNA^10 (9 μL) in TE buffer (10 mM Tris, 1 mM EDTA, pH 7.5) were treated with the agents 190-196 in DIMETHYLSULFOXIDE (1 μL, at the specified concentrations). The solutions were mixed by vortexing and brief centrifugation and subsequently incubated at 4° C. for 24 h. The covalently modified DNA was separated from unbound agent by Ethanol precipitation of the DNA. The Ethanol precipitations were carried out by adding t-RNA as a carrier (1 μL, 10 1μg/μL), a buffer solution containing salt (0.1 volume, 3 M NaOAc in TE) and −20° C. Ethanol (2.5 volumes). […]

[4] = (+)-enantiomer; cited from earlier work
solubility properties = format: physicochemical; conditions: polar protic or aprotic solvents, water, nonpolar solvents
L1210 [5] = conditions: cited from earlier work
[6] = Mus musculus, L1210, read-out: cytotoxic potency

In the case of `O=C(Nc1ccc2[nH]c(C(=O)N3CC4CC45C3=CC(=O)c3ccccc35)cc2c1)c1cc2ccccc2[nH]1` (centres unmarked) [Compound 27], the “cytotoxic potency compared with (+)-CC-1065” value (L1210 [1]; (+)-enantiomer) is given as “comparable”, the “cytotoxic potency, fold greater than (+)-CPI-indole2 (4, U71,184)” value (L1210 [1]; (+)-enantiomer) is given as 4 × and the delayed toxicity [2] is given as “lacked the delayed fatal toxicity”. For the same molecule, the “relative rate of DNA alkylation k(27)/k(4)” value ([3]; single high affinity site (5′-AATTA) of w794 DNA, 37° C., 0-5 d, 1×10^−5 M agent) was 14, the “DNA alkylation efficiency, fold more efficient than (+)-CPI-indole2 (4)” value ([3]; w794, 4° C. or 37° C., (+)-enantiomers) was 10 × and the “in vivo antitumor activity” value [4] was “potent and efficacious”.

In the case of `COc1c(O)c2c(c3cc(C(=O)N4CCc5c4c(O)c(OC)c4[nH]c(C(=O)N6C[C@H]7C[C@@]78C6=CC(=O)c6[nH]cc(C)c68)cc54)[nH]c13)CCN2C(N)=O` [(+)-CC-1065, CC-1065], the solubility (solubility properties) is given as “essentially insoluble in all solvents except DMSO or DMF”, the IC50 (L1210 [1]; L1210) is given as 0.02 nM and the delayed toxicity [2] is given as “exhibited the delayed toxicity”.

For `Cc1c[nH]c2c1[C@@]13C[C@@H]1CN(C(=O)c1cc4c5c(ccc4[nH]1)N(C(=O)c1cc4c6c(ccc4[nH]1)N(C(N)=O)CC6)CC5)C3=CC2=O` [(+)-CPI-CDPI2], the delayed toxicity [2] is given as “exhibited the delayed toxicity”.

In the case of `NC(=O)N1CCc2c1ccc1[nH]c(C(=O)N3C[C@H]4CC45C3=CC(=O)c3ccccc35)nc21` (some centres unmarked) [Compound 64, N^2-[(3′-carbamoyl-1′,2′-dihydro-3′H-pyrrolo[3′,2′-e]benzimidazol-7′-yl)carbonyl]-1,2,9,9a-tetrahydro-cyclopropa-[c]-enz[e]-indol-4-one], the IC50 (L1210 [1]; [6]) is reported as 0.5 to 1 nM and the “DNA alkylation efficiency, fold less efficient than (+)-CBI-CDPI1 (26)” value [3] is reported as “approximately 100 ×”.

In the case of `NC(=O)N1CCc2c1ccc1oc(C(=O)N3C[C@H]4CC45C3=CC(=O)c3ccccc35)nc21` (some centres unmarked) [Compound 62, CBI-CDPBO1], the IC50 (L1210 [1]; [6]) is reported as 0.5 to 1 nM and the “DNA alkylation efficiency, fold less efficient than (+)-CBI-CDPI1 (26)” value [3] is reported as “approximately 100 ×”.

(+)-CPI-PDE-I1 [reference compound] showed an IC50 (L1210 [1]; L1210) of 0.02 nM.

With `NC(=O)N1CCc2c1ccc1[nH]c(C(=O)N3C[C@H]4C[C@@]45C3=CC(=O)c3ccccc35)cc21` [Compound 26, CBI-CDPI1] the “DNA alkylation selectivity (sequence)” value ([3]; (+)-enantiomer) was 5′-A/TA/TA/TA and the “DNA alkylation selectivity (sequence)” value ([3]; ent-(−)-enantiomer) was 5′-A/TAA/TA/T.

For `COc1cc2cc(C(=O)N3CC4CC45C3=CC(=O)c3ccccc35)[nH]c2c(OC)c1OC` (centres unmarked) [Compound 29, CBI-TMI], the “relative rate of DNA alkylation k(29)/k(2)” value ([3]; 5′-AATTA high affinity site of w794 DNA, 4° C., 0-24 h, 1×10^−6 M agent) was 0.9.

For `COc1c(O)c2c(c3cc(C(=O)N4CCc5c4c(O)c(OC)c4[nH]c(C(=O)N6CC7CC78C6=CC(=O)c6[nH]cc(C)c68)cc54)[nH]c13)CCN2C(N)=O` (stereo not drawn) [ent-(−)-CC-1065], the delayed toxicity [2] is given as “has not been observed” and the “cytotoxicity compared with natural (+)-CC-1065” value (L1210 [5]) is given as “equally cytotoxic”.

With `Cl.NNC(=O)N1CC(CCl)c2c1cc(O)c1ccccc21` (centres unmarked) [Compound 73, 1-(Chloromethyl)-3-(hydrazino)carbonyl-5hydroxy-1,2-dihydro-3H-benz[e]indole hydrochloride] the “in vitro cytotoxic activity compared with N-BOC-CBI (9)” value (L1210 [1]) was “more potent”, the “in vitro cytotoxic activity, fold more potent than tert-butylcarbazate precursor 72” value (L1210 [1]; free semicarbazide versus 72) was “ca. 100 ×” and the “in vitro cytotoxic activity, fold less potent than (+)-CC-1065” value (L1210 [1]; seco precursor with free amine) was 100 ×.
